{
  "source": "patent US20060128792A1",
  "about": "“Deguelin as a chemopreventive agent for lung cancer” (priority 2002, published 2006)",
  "key": {"H1299 NSCLC cells": {"test_system": "H1299 NSCLC cells", "test": "Sensitization to chemotherapeutic agents and irradiation, MTT analysis", "assay_type": "cell-based", "details": "deguelin 100 nM 2 days; 10 nM paclitaxel, 50 nM doxorubicin or 4Gy irradiation for 1 day", "procedure": "FIG. 10. […] Results are expressed relative to the density of untreated cells. Bars, means±SD of a representative experiment done in six identical wells from five independently performed experiments.\nAdditional studies were conducted to determine whether deguelin can sensitize cells resistant to a chemotherapeutic agent. H1299 NSCLC cells were incubated with deguelin (100 nM) for 2 days."}, "[1]": {"test_system": "pAkt (Ser473) and pGSK-3β (Ser9) in squamous HBE cells", "test": "Western blot of pAkt (Ser473) and pGSK-3β (Ser9)", "assay_type": "cell-based", "details": "time-dependent", "procedure": "Immunoblotting. Whole cell lysates were prepared in lysis buffer (50 mM N-[2-[…]]-piperazine-N′-[2-ethanesulfonic acid] [HEPES; pH 7.5], 150 mM NaCl, 1.5 mM MgCl2, ImM EDTA, 0.2 mM EGTA, 1% NP40, 10% glycerol, 1 mM dithiothreitol (DTT), 1 mM phenylmethylsulfonyl fluoride, 20 mM sodium fluoride, 5 mM sodium orthovanadate, 10 μg/ml aprotinin, 10 μg/ml leupeptin, 2 μg/ml pepstatin, and 1 mM benzamidine) as described previously (Lee et al., 2002). Equivalent protein concentrations were resolved in sodium dodecyl sulfate-polyacrylamide gels and transferred to a nitrocellulose membrane. After the blocking of transblotted membrane in Tris-buffered saline (TBS) containing 0.05% Tween 20 (TBST) and 5% low fat milk, themembrane was incubated with primary antibody at the appropriate dilution in TBS-5% low-fat milk at 4° C. for 16 h and washed with TBST. The immunoblots were visualized using the ECL kit (Amersham, Inc., Arlington Heights, III) according to the manufacturer's directions. Rabbit polyclonal antibodies against human pAkt (Ser473), Akt, and pGSK-3β (Ser9), and mouse monoclonal antibody against human anti-pMAPK (Thr202/Tyr204) were purchased from Cell Signalinng Technology (Beverly, Mass.). […]\nEffects of Deguelin on Squamous Differentiated HBE Cells. […] It was then determined whether deguelin inhibits the activation of PI3K/Akt pathway in squamous HBE cells. […]"}, "[2]": {"test_system": "bFGF-induced angiogenesis", "test": "Matrigel plug assay, bFGF-induced angiogenesis", "assay_type": "in vivo, nude mice", "details": "5 nmole deguelin plus bFGF, seven days", "procedure": "Inhibition of angiogenesis by deguelin was also evaluated using the Matrigel™ plug assay, an established in vivo angiogenesis model, using nude mice. Matrigel alone was used as a negative control, 100 ng/ml bFGF and 72 units/ml heparin in a vehicle of 0.1% BSA/PBS (bFGF) for a positive control, 5 nmole deguelin alone, and 5 nmole deguelin plus bFGF were included. Seven days after injection, mice were sacrificed. […] 1, 1 and 10 μM concentrations of deguelin in these cells. All of these findings indicated the anti-angiogenic activity of deguelin."}, "H1299": {"test_system": "H1299", "test": "MTT assay, growth inhibition by deguelin or deguelin derivatives", "assay_type": "cell-based", "details": "H1299, 3 days"}, "H322": {"test_system": "H322", "test": "MTT assay, growth inhibition by deguelin or deguelin derivatives", "assay_type": "cell-based", "details": "H322, 3 days"}, "ERK1/2 (MAPK)": {"test_system": "ERK1/2 (MAPK)", "test": "ERK 1/2 kinase assay (MBP phosphorylation, immunoprecipitate of treated cells)", "assay_type": "cell-based", "details": "1799 cells, 10^−7 M deguelin", "procedure": "ERK 1/2 Kinase assay. ERK1/2 activity was determined by analyzing MAPK-induced phosphorylation of myelin basic protein (MBP) as previously described (Lee et al., 2002). Briefly, 1799 cells cultured in KSFM containing 10^−7 M deguelin for different time periods were lysed in lysis buffer, and ERK-1 and -2 were immunoprecipitated from 100 μg of cell extracts with antibodies (1 μg) that recognize ERK-1 and -2 (Santa Cruz Biotechnology) by rotation at 4° C. for overnight. The total volume was adjusted to 0.5 ml with lysis buffer. Protein A sepharose beads (20 μl) (Amersham Pharmacia Biotech) were added and incubated at 4° C. for 2 hour. The beads were washed three times with lysis buffer and once with kinase buffer (20 MM Hepes [pH 7.5], 20 mM β-glycerol phosphate, 10 mM PNPP, 10 mM MgCl2, 1 mM dithiothreitol, 50 mM sodium vanadate). Kinase assays were performed by incubating the beads with 30 μl kinase buffer to which […], 5 μCi [γ^32P] ATP (2000 cpm/pmol), and 2 μg MBP (Cell Signaling Technology) were added. The kinase reaction was performed at 30° C. for 20 min. The samples were suspended in Laemmli buffer, boiled for 5 min, and the samples were analyzed by SDS-PAGE. The gel was dried and autoradiographed."}},
  "note": "Values joined by “and” are separate entries in the source; they are usually repeats but may differ in a detail not shown here. Equal values may be shown once.",
  "data": [
    {"smiles": "COc1cc2c(cc1OC)[C@@H]1C(=O)c3ccc4c(c3O[C@@H]1CO2)C=CC(C)(C)O4", "note": "[Deguelin]", "values": [
      {"measurement": "sensitization to chemotherapeutic agents", "setting": "H1299 NSCLC cells", "result": "sensitizes cancer cells to chemotherapeutic agents"},
      {"measurement": "elevated levels of pAkt (Ser473) and pGSK-3β (Ser9)", "setting": "[1]", "result": "down-regulated"},
      {"measurement": "bFGF-induced angiogenesis in Matrigel plugs", "setting": "[2]", "result": "markedly inhibit"},
      {"measurement": "Avg. % con", "setting": "H1299; deguelin 10^−6M", "result": 0.36, "unit": "% con"},
      {"measurement": "MTT value, mean of replicates (unheaded line)", "setting": "H1299; deguelin 10^−6M", "result": 0.048},
      {"measurement": "MTT value, replicate (unheaded line)", "setting": "H1299; deguelin 10^−6M", "result": "0.052 and 0.043 and 0.049"},
      {"measurement": "Avg. % con", "setting": "H1299; deguelin 10^−8M", "result": 0.78, "unit": "% con"},
      {"measurement": "MTT value, mean of replicates (unheaded line)", "setting": "H1299; deguelin 10^−8M", "result": 0.104},
      {"measurement": "MTT value, replicate (unheaded line)", "setting": "H1299; deguelin 10^−8M", "result": "0.101 and 0.108 and 0.103"},
      {"measurement": "Avg. % con", "setting": "H1299; deguelin 10^−10M", "result": 0.73, "unit": "% con"},
      {"measurement": "MTT value, mean of replicates (unheaded line)", "setting": "H1299; deguelin 10^−10M", "result": 0.098},
      {"measurement": "MTT value, replicate (unheaded line)", "setting": "H1299; deguelin 10^−10M", "result": "0.119 and 0.087 and 0.089"},
      {"measurement": "Avg. % con", "setting": "H1299; deguelin 10^−12M", "result": 0.98, "unit": "% con"},
      {"measurement": "MTT value, mean of replicates (unheaded line)", "setting": "H1299; deguelin 10^−12M", "result": 0.132},
      {"measurement": "MTT value, replicate (unheaded line)", "setting": "H1299; deguelin 10^−12M", "result": "0.121 and 0.136 and 0.138"},
      {"measurement": "Avg. % con", "setting": "H322; deguelin 10^−6M", "result": 0.49, "unit": "% con"},
      {"measurement": "MTT value, mean of replicates (unheaded line)", "setting": "H322; deguelin 10^−6M", "result": 0.094},
      {"measurement": "MTT value, replicate (unheaded line)", "setting": "H322; deguelin 10^−6M", "result": "0.096 and 0.087 and 0.1"},
      {"measurement": "Avg. % con", "setting": "H322; deguelin 10^−8M", "result": 0.89, "unit": "% con"},
      {"measurement": "MTT value, mean of replicates (unheaded line)", "setting": "H322; deguelin 10^−8M", "result": 0.173},
      {"measurement": "MTT value, replicate (unheaded line)", "setting": "H322; deguelin 10^−8M", "result": "0.172 (2×) and 0.174"},
      {"measurement": "Avg. % con", "setting": "H322; deguelin 10^−10M", "result": 0.84, "unit": "% con"},
      {"measurement": "MTT value, mean of replicates (unheaded line)", "setting": "H322; deguelin 10^−10M", "result": 0.163},
      {"measurement": "MTT value, replicate (unheaded line)", "setting": "H322; deguelin 10^−10M", "result": "0.153 and 0.16 and 0.177"},
      {"measurement": "Avg. % con", "setting": "H322; deguelin 10^−12M", "result": 0.86, "unit": "% con"},
      {"measurement": "MTT value, mean of replicates (unheaded line)", "setting": "H322; deguelin 10^−12M", "result": 0.166},
      {"measurement": "MTT value, replicate (unheaded line)", "setting": "H322; deguelin 10^−12M", "result": "0.168 and 0.16 and 0.17"},
      {"measurement": "MAPK activity", "setting": "ERK1/2 (MAPK)", "result": "not affected"}
    ]}
  ]
}
